Patent US20210177879A1, “VITAMIN D RECEPTOR AGONIST” (Guanghzou University of Chinese Medicine, priority 2018, published 2021)

What was measured:
[1] = test system: Aktl; experiment: Detection of acting target of monotropein: Aktl (Western blot); assay type: in vivo, Balb/c mice; settings: colon of AOM/DSS mice
Procedure: Experimental method: 90 Balb/c mice of 6-8 weeks were purchased from the Experimental Animal Center in Guangzhou University of Chinese Medicine, weighed about 18-22 g, and subjected to adaptive feeding for 10 days. Modeling was divided into three stages. In the first stage, except for the normal group of animals being given saline injection, each of the other animals were intraperitoneally injected with a carcinogen AOM (10 mg/kg), and given free access to 2% DSS water from the next day for 7 days, and then given access to replaced regular drinking water for 14 days. In the second stage, the animals were given free access to 2% DSS water for 10 days, and then given access to replaced regular drinking water for 14 days. In the third stage, the animals were given free access to 2% DSS water for 10 days, and then given access to replaced regular drinking water for 11 days. The normal group was given access to regular drinking water throughout the experiment. The diet, water drinking and body weights of the animals were recorded daily and DAI scores were made, and the animals were killed and harvested at the 10th week. […]
A potential acting target of monotropein for interfering with the colon cancer was detected.

[2] = test system: transplanted tumor of MB-231 pancreatic cancer cells; experiment: Transplanted tumor of MB-231 pancreatic cancer cells in nude mice; assay type: in vivo; settings: 2 mg/kg in combination with 5-fluorouracil at half dose (20 mg/kg), once a day; effect comparable to 5-fluorouracil alone 40 mg/kg
Procedure: The SMB-231 pancreatic cancer cells were thawed, and cultured in a changed medium after 24 hours. Medium preparation method: 6% serum, 1% of a bispecific antibody+a 1640 basal medium. After grown to confluent, the cells were digested and subcultured to expand the number of cells. When reached the required amount, the cells were digested by trypsin, centrifuged, and resuspended in PBS to prepare a cell suspension of 1×10^8 cells/ml. A part of the cell suspension was added with the monotropein, desacetyl asperulosidic acid, asperuloside, and asperulosidic acid respectively, and the inhibition rate (%) of tumor cell proliferation by each of these different compounds was examined.
Male adult nude mice, which had the body weights of 20-24 g, were purchased from Guangdong Medical Laboratory Animal Center. After 7 days of adaptive feeding of the animals, except for the blank group, the remaining animals were injected with 0.2 ml of a SMB-231 pancreatic cancer cell suspension in PBS at ventrodorsal and scapula sites of them, the response conditions of the animals were observed, and the body weights of the animals were determined once a week. After 2 weeks of observation, the animals were grouped into the following groups according to tumor size: a blank group; a model group; a 5-fluorouracil control group (5-Full, 40 mg/kg); monotropein+5-fluorouracil (2 mg/kg monotropein+20 mg/kg 5-fluorouracil), desacetyl asperulosidic acid+5-fluorouracil (2 mg/kg desacetyl asperulosidic acid+20 mg/kg 5-fluorouracil), asperuloside+5-fluorouracil (2 mg/kg asperuloside+20 mg/kg 5-fluorouracil), asperulosidic acid+5-fluorouracil (2 mg/kg asperulosidic acid+20 mg/kg 5-fluorouracil), these groups being labeled as: Mo, As, Aa, Da. Each group included 8 animals; and administration was conducted once a day.
The status, death conditions, and eating and drinking conditions of the animals were observed daily. The body weights of the animals were determined once a week and the tumor size of the animals was determined every 4 days. The tumor volume of the animals was determined by using a vernier caliper. After 1 month of administration, the animals were sacrificed after blood was sampled from the orbit thereof, and the tumor was separated and weighed.

## O=C(O)C1=CO[C@@H](O[C@@H]2O[C@H](CO)[C@@H](O)[C@H](O)[C@H]2O)[C@H]2[C@@H]1C=C[C@]2(O)CO [monotropein]
[1]
  effect on Aktl, Western blot: no significant effect
[2]
  tumor proliferation in SMB-231 tumor-bearing mice: significantly inhibit tumor proliferation
